Experimental findings from PubChem BioAssay (NCI) are described below.

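Method: 48-hour compound exposure of cells in 96-well plates, five concentrations, linear interpolation of endpoints. Here, GI50 denotes the concentration required for 50% inhibition of growth. TGI: concentration producing complete growth inhibition.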

Among the test systems are BT-549 breast; CAKI-1 renal; M14 melanoma; MDA-MB-231 breast; MDA-MB-435; OVCAR-3 ovarian; SF-295 CNS; SK-MEL-28 melanoma; SK-OV-3 ovarian; MCF7 breast.
Experiment in all cases: NCI tumour cell line growth inhibition, 48 h

For `NC(=NC1CCCCCC1)c1ccc(N2CCN(c3ccc(C(N)=NC4CCCCCC4)cc3)CC2)cc1`, the GI50 in the test with BT-549 breast was 2.1 µM; in the test with CAKI-1 renal, over 50 µM; in the test with M14 melanoma, 8.74 µM; in the test on MDA-MB-231 breast, 8.39 µM; with MDA-MB-435 it was 7.85 µM; in the test on OVCAR-3 ovarian it was 4.28 µM. For the same compound, the GI50 was 3.89 µM in the test on SF-295 CNS, 10.7 µM in the test on SK-MEL-28 melanoma and 15.7 µM in the test on SK-OV-3 ovarian. In addition, the TGI in the test with BT-549 breast was 5.48 µM; in the test on CAKI-1 renal, over 50 µM; with M14 melanoma, 30.5 µM; in the test with MDA-MB-231 breast, 29 µM; in the test on MDA-MB-435 it was 26.1 µM; in the test on OVCAR-3 ovarian, 28.8 µM. Further, the TGI in the test on SF-295 CNS came to 19.9 µM; in the test on SK-MEL-28 melanoma it was 22.4 µM; in the test with SK-OV-3 ovarian it was 44.9 µM.
On to `CCOC(=O)NC(=O)c1cn(CCCOC(=O)CCCCCCCCC(=O)OCCCn2cc(C(=O)NC(=O)OCC)c(=O)[nH]c2=O)c(=O)[nH]c1=O`, for which the TGI is 51.3 µM in the test with CAKI-1 renal; 76 µM in the test on M14 melanoma; 34.8 µM in the test with OVCAR-3 ovarian; 50.2 µM with SF-295 CNS; 64.8 µM in the test on SK-MEL-28 melanoma; over 100 µM in the test with SK-OV-3 ovarian.
In the case of `COC1CC(OS(=O)(=O)c2ccc(C)cc2)C(OS(=O)(=O)c2ccc(C)cc2)C(COS(=O)(=O)c2ccc(C)cc2)O1` (stereo not drawn), the TGI in the test with CAKI-1 renal was 7.7 µM; in the test with M14 melanoma it was 17.8 µM; in the test on OVCAR-3 ovarian, 5.62 µM; in the test with SF-295 CNS it was 4.38 µM; with SK-MEL-28 melanoma it was 13.4 µM; in the test with SK-OV-3 ovarian, 8.62 µM.
With `CN(C)c1ccc(/C=C2\N=C(c3ccc(N)cc3)OC2=O)cc1`, the TGI in the test with CAKI-1 renal, with M14 melanoma, with OVCAR-3 ovarian, with SF-295 CNS, in the test on SK-MEL-28 melanoma and in the test on SK-OV-3 ovarian was over 100 µM in each case.
Turning to `C=C(CN1CCN(c2ccccc2F)CC1)c1ccc(C(=O)Nc2ccccc2N)cc1`, the GI50 in the test on BT-549 breast is 1.46 µM; in the test on CAKI-1 renal, 1.81 µM; in the test with MCF7 breast, 0.889 µM; in the test with MDA-MB-231 breast, 0.24 µM; in the test on OVCAR-3 ovarian, 2.14 µM; with SF-295 CNS, 2.38 µM. Further, the GI50 with SK-MEL-28 melanoma was 2.57 µM; with SK-OV-3 ovarian, 7.73 µM. Moreover, the TGI was 8.82 µM in the test on BT-549 breast; 7.18 µM in the test with CAKI-1 renal; over 100 µM in the test with MCF7 breast; 3.14 µM with MDA-MB-231 breast; 7.82 µM with OVCAR-3 ovarian; 18 µM in the test with SF-295 CNS. For the same compound, the TGI in the test with SK-MEL-28 melanoma was 53.9 µM; with SK-OV-3 ovarian it was over 100 µM.
Consider `Cc1cc2c(c(C#N)c1C)NC(=O)C(CC(=O)O)C2=O` (stereo not drawn), for which the TGI with CAKI-1 renal, in the test with M14 melanoma, in the test on OVCAR-3 ovarian, in the test on SF-295 CNS, in the test with SK-MEL-28 melanoma and with SK-OV-3 ovarian was over 100 µM each time.
Consider `COc1ccc2nc(NC(=O)C(=O)CC(=O)c3ccc(Cl)cc3)sc2c1`, for which the TGI with CAKI-1 renal, with M14 melanoma, with OVCAR-3 ovarian, in the test with SF-295 CNS, in the test with SK-MEL-28 melanoma and in the test with SK-OV-3 ovarian was over 100 µM each time.
As to `CCCCC(=O)[O-].N.N.N.N.N.[Co+3].[O-][Cl+3]([O-])([O-])[O-]`, the GI50 in the test on M14 melanoma, with OVCAR-3 ovarian, with SF-295 CNS, in the test on SK-MEL-28 melanoma and in the test with SK-OV-3 ovarian was over 100 µM throughout. Further, the TGI in the test with M14 melanoma, in the test on OVCAR-3 ovarian, with SF-295 CNS, with SK-MEL-28 melanoma and with SK-OV-3 ovarian was over 100 µM in each case.
Take `Cc1c(C(=O)CC(=O)C(=O)Nc2cccc(C(F)(F)F)c2)[n+](=O)c2ccccc2n1[O-]`: the TGI with CAKI-1 renal was found to be 21 µM; in the test on M14 melanoma, 11.4 µM; in the test with OVCAR-3 ovarian, 4.92 µM; in the test on SF-295 CNS, 23.4 µM; with SK-MEL-28 melanoma it was 27.2 µM; with SK-OV-3 ovarian, 50.2 µM.
Regarding `N#CC1(c2nc3ccccc3o2)C(=O)C(=O)N(c2ccc(Cl)c(Cl)c2)C(=O)C1=O`, the TGI in the test on CAKI-1 renal, with M14 melanoma, in the test with OVCAR-3 ovarian, with SF-295 CNS and in the test with SK-MEL-28 melanoma was over 100 µM each time.
`Cc1nc(Nc2ccc(F)c(Cl)c2)sc1C(=O)O`: the GI50 with BT-549 breast was 1.7 µM; in the test with CAKI-1 renal, 1.9 µM; in the test with M14 melanoma it was 1.73 µM; in the test with MCF7 breast, 1.53 µM; in the test with MDA-MB-435 it was 2.13 µM; in the test on OVCAR-3 ovarian, 1.82 µM. Besides, the GI50 with SF-295 CNS is 1.49 µM; with SK-MEL-28 melanoma it was 1.77 µM; in the test on SK-OV-3 ovarian it was 1.83 µM. Further, the TGI in the test with BT-549 breast stood at 4.28 µM; in the test on CAKI-1 renal, 7.34 µM; in the test with M14 melanoma, 3.66 µM; in the test with MCF7 breast, 8.18 µM; in the test on MDA-MB-435 it was 5.25 µM; in the test on OVCAR-3 ovarian, 4.47 µM. The TGI with SF-295 CNS stood at 3.15 µM; in the test with SK-MEL-28 melanoma, 3.68 µM; with SK-OV-3 ovarian it was 4.33 µM.
Take `O[C@]12CCCC[C@H]1CCC2`: the TGI in the test on CAKI-1 renal, in the test on M14 melanoma, in the test with OVCAR-3 ovarian, in the test with SF-295 CNS, in the test with SK-MEL-28 melanoma and in the test on SK-OV-3 ovarian was over 100 µM in each case.
Consider `CC[O-].CC[O-].O=Nc1ccc2cc([O-])ccc2c1.O=Nc1ccc2cc([O-])ccc2c1.[Ti+4]`, for which the GI50 was 3.76 µM in the test with CAKI-1 renal; 1.44 µM in the test with OVCAR-3 ovarian; 1.8 µM in the test with SF-295 CNS; 1.81 µM in the test with SK-MEL-28 melanoma; 14.6 µM with SK-OV-3 ovarian. The TGI came out at 12.2 µM with CAKI-1 renal; 3.82 µM in the test with OVCAR-3 ovarian; 10.5 µM in the test with SF-295 CNS; 3.4 µM with SK-MEL-28 melanoma; 20 µM with SK-OV-3 ovarian.
`CCc1nc2ccc(Cc3ccc(C(=O)NO)cc3)cc2c(=O)n1CCc1ccccc1`: the GI50 was 1.73 µM with BT-549 breast; 1.27 µM with M14 melanoma; 1.34 µM in the test with MCF7 breast; 1.31 µM in the test with MDA-MB-231 breast; 1.15 µM in the test with OVCAR-3 ovarian; 1.02 µM in the test on SF-295 CNS. The GI50 with SK-MEL-28 melanoma is 1.47 µM; with SK-OV-3 ovarian, 1.44 µM. Further, the TGI in the test on BT-549 breast was 4.79 µM; in the test with M14 melanoma, 3.24 µM; in the test on MCF7 breast, 6.82 µM; in the test on MDA-MB-231 breast it was 3.98 µM; with OVCAR-3 ovarian, 3.85 µM; in the test with SF-295 CNS, 2.6 µM. The results for the TGI in the test on SK-MEL-28 melanoma and in the test on SK-OV-3 ovarian were 5.72 µM and 2.88 µM, respectively.
As to `CC(=O)O[C@@H]1CC(C)C2CC2C2=C(C(O)OC2O)[C@@H]1C(C)CCC=C(C)C` (stereo partly drawn), the TGI in the test with CAKI-1 renal was 58.3 µM; in the test with M14 melanoma, over 100 µM; with SK-MEL-28 melanoma, over 100 µM.
